By Vd is commonly meant the apparent volume that relates the amount in the body to the concentration in plasma or blood. Low readings indicate confinement near the circulation, high ones extensive tissue distribution. One may read the AUC as the area under the concentration-time curve, a measure of exposure. A lower AUC goes with low exposure. The term Cmax denotes the peak of the concentration-time curve. In general, Tmax refers to the time at which the peak concentration occurs.

In one data set the target is T1, ovine COX-1 (Ovis aries, UniProt P05979).
T1 sequence (P05979 25-600): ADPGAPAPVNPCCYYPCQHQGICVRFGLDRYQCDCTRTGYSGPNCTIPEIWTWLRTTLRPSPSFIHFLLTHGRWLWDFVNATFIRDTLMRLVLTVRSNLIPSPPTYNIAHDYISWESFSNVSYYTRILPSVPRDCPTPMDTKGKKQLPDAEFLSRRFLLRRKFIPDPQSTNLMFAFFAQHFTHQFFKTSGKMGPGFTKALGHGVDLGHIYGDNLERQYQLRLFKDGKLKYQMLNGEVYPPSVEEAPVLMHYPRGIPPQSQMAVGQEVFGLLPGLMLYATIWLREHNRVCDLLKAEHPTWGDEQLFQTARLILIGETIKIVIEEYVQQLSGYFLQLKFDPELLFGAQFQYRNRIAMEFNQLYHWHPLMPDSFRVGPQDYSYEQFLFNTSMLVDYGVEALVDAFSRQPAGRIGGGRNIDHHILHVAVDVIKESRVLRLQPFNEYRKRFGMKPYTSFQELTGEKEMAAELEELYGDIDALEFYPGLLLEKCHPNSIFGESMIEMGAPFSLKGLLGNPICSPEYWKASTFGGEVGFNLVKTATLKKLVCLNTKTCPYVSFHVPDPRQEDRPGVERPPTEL
The data set is described as follows: COX-1 enzyme inhibition (ADHP fluorescence). It is filed as biochemical. As to conditions: ovine COX-1, 15 min incubation; read-out: Inhibition IC50 COX-1. On the procedure:
(§1) Deuterated benzopyran compounds of different concentrations were uniformly mixed with ovine COX-1 and human recombinant COX-2 for incubation for 15 min, respectively, and then the system was added with Heme and ADHP for incubation for another 2 min and finally added with substrate arachidonic acid. The light emission intensity of the reaction product at 595 nm was immediately detected by a microplate reader under exciting light at 530 nm. […] In the whole blood assay, venous blood of healthy donors was collected with a non-anticoagulation tube and a heparin tube, deuterated benzopyran compounds of different concentrations (1×10^−8 to 1×10^−4) were mixed with the blood in the non-anticoagulation tube, the supernatant was collected after the blood was coagulated and then measured by ELISA in terms of the yield of TXB2; and deuterated benzopyran compounds of different concentrations (1×10^−8 to 1×10^−4) were mixed with the blood in the heparin tube, the mixture was added with lipopolysaccharide until the final concentration was 100 μg/mL, mixed uniformly and then kept stand overnight at 37° C., the supernatant was collected by centrifugation and then measured by ELISA in terms of the yield of PGE2. […]

A further data set addresses T2, human recombinant COX-2 (Homo sapiens, UniProt P35354).
T2 sequence (P35354 18-604): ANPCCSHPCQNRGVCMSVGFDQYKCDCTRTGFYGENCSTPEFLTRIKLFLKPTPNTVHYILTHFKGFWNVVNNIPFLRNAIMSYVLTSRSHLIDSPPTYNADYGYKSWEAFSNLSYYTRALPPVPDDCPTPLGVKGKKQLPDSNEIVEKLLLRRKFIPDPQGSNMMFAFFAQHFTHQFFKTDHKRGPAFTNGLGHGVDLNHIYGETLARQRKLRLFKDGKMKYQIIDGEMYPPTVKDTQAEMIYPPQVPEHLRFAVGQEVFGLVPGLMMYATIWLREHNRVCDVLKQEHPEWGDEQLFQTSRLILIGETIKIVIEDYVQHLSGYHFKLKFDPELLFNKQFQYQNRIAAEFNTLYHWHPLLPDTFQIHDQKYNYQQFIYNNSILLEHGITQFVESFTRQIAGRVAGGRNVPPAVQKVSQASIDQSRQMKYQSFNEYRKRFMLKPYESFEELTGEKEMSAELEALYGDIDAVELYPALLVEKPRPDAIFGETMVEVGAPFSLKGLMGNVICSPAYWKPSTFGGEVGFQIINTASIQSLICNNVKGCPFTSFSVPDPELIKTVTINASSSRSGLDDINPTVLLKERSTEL
The data set is described as follows: COX-2 enzyme inhibition (ADHP fluorescence). It is filed as biochemical. Particulars: human recombinant COX-2, 15 min incubation. On the procedure: (§2) Deuterated benzopyran compounds of different concentrations were uniformly mixed with ovine COX-1 and human recombinant COX-2 for incubation for 15 min, respectively, and then the system was added with Heme and ADHP for incubation for another 2 min and finally added with substrate arachidonic acid. The light emission intensity of the reaction product at 595 nm was immediately detected by a microplate reader under exciting light at 530 nm. […] In the whole blood assay, venous blood of healthy donors was collected with a non-anticoagulation tube and a heparin tube, deuterated benzopyran compounds of different concentrations (1×10^−8 to 1×10^−4) were mixed with the blood in the non-anticoagulation tube, the supernatant was collected after the blood was coagulated and then measured by ELISA in terms of the yield of TXB2; and deuterated benzopyran compounds of different concentrations (1×10^−8 to 1×10^−4) were mixed with the blood in the heparin tube, the mixture was added with lipopolysaccharide until the final concentration was 100 μg/mL, mixed uniformly and then kept stand overnight at 37° C., the supernatant was collected by centrifugation and then measured by ELISA in terms of the yield of PGE2.

In data set [1] the test system is generation of PGE2 in the whole blood. The data set is described as follows: whole blood assay, lipopolysaccharide-induced yield of PGE2 in heparin blood (ELISA). Type of data set: cell-based, human. As to conditions: Homo sapiens, read-out: inhibition IC50 onto generation of PGE2 in the whole blood test. As for the experimental part: as §2
(ELISA stands for enzyme-linked immunosorbent assay.)

In data set [2] the test system is generation of TXB2 in the whole blood. The data set is described as follows: whole blood assay, yield of TXB2 in coagulated blood (ELISA). Type of data set: cell-based. Particulars: Homo sapiens, read-out: inhibition IC50 onto generation of TXB2 in the whole blood test. On the procedure:
as §1

Data set [3] can be described thus: Test on pharmacokinetics and bioavailability of rats. It is filed as in vivo, SD rats. Particulars: male SD rats, single dose 2.5 mg/kg. On the procedure: The blood samples employ acetonitrile to precipitate protein, 16000 rpm*30 min, and the supernatant is used for LC/MS analysis. Data is performed with parameter fitting by DAS2.0, and the bioavailability of oral administration of compounds is calculated according AUC data.

In the case of `[2H]C([2H])([2H])c1c(Br)c2c(c(C([2H])([2H])[2H])c1Br)C=C(C(=O)O)C(C(F)(F)F)O2` (stereo not shown) [GIBH-1051, 6,8-dibromo-5,7-(dimethyl-D6)-2-(trifluoromethyl)-2H-chromene-3-carboxylic acid], the IC50 on ovine COX-1 is 5.45 µM; at human recombinant COX-2 it was 0.0841 µM; in data set [1], greater than 100 µM; in data set [2], 70.6 µM. In data set [3], this compound yielded a Vd of 1.004 L/kg. For the same compound, the BA in data set [3] (oral, calculated according AUC data) was 63.7%. For the same compound, in data set [3] (rat, plasma, oral administration), the AUC is 13000 ng·h/mL. For the same compound, the Cmax in data set [3] (rat, plasma, oral administration, read-out: Cmax) was 4480 ng/mL. Besides, the Tmax in data set [3] (rat, plasma, oral administration, read-out: Tmax) turned out to be 0.688 h. For the same compound, the half-life in data set [3] (rat, plasma, oral administration, read-out: t½ (converted)) was 1.76 h.

(Values after US9371305B2, “Deuterated benzopyran compounds and application thereof” (Guangzhou Institutes of Biomedicine And Health, Chinese …, priority 2012, dated 2016).)
